In article PMC6979384, “Characterization of the plant homeodomain (PHD) reader family for their histone tail interactions” (Epigenetics & Chromatin, 2020):
Several values for one entry are separate records, joined by “and”; a condition that tells them apart may be missing. Identical values can stand only once. Blank lines part the entries; values can stand above or below the substance they belong to.

Experiments:
Test in all cases: Histone peptide microarray
Type in all cases: binding, human
Conditions in all cases: arrays performed twice
DPF2 (PPC2W2) = system: DPF2 (PPC2W2)
Outline: (§1)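 Each reader, produced as a GST fusion and purified, was tested at 0.5 μM on synthetic histone peptides (293 in total) carrying single or combinatorial marks. Intensities averaged over four replicates.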

KDM5B (1) = system: KDM5B (1)
Outline: as §1

SP140L = system: SP140L
Outline: as §1

PHF13 = system: PHF13
Outline: as §1

MORC3 (CW) = system: MORC3 (CW)
Outline: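 GST-PHD reader, 0.5 μM, probed on 293-peptide histone array (single/combinatorial PTMs); optimized array protocol; signal = mean ± SD, n = 4.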

PHF2 = system: PHF2
Outline: as §1

KDM4C (TTP) = system: KDM4C (TTP)
Outline: as §1

KDM5A (1) = system: KDM5A (1)
Outline: as §1

PHF21A = system: PHF21A
Outline: as §1

ING3 = system: ING3
Outline: as §1

PHF8 = system: PHF8
Outline: as §1

TAF3 = system: TAF3
Outline: as §1

KDM5B (3) = system: KDM5B (3)
Outline: as §1

RAG2 = system: RAG2
Outline: as §1

TRIM66 (PB) = system: TRIM66 (PB)
Outline: as §1

ING2 = system: ING2
Outline: as §1

CHD5 (PPCC) = system: CHD5 (PPCC)
Outline: as §1

PHF23 = system: PHF23
Outline: as §1

MLL5 = system: MLL5
Outline: as §1

AIRE (PP) = system: AIRE (PP)
Outline: as §1

KDM5A (3) = system: KDM5A (3)
Outline: as §1

BPTF (PB) = system: BPTF (PB)
Outline: as §1

DIDO1 = system: DIDO1
Outline: as §1

CHD5 (PCC) = system: CHD5 (PCC)
Outline: as §1

ING5 = system: ING5
Outline: as §1

KDM7A = system: KDM7A
Outline: as §1

BAZ2B = system: BAZ2B
Outline: as §1

PHRF1 (RP) = system: PHRF1 (RP)
Outline: as §1

CHD4 (PPCC) = system: CHD4 (PPCC)
Outline: as §1

ING1 = system: ING1
Outline: as §1

ING4 = system: ING4
Outline: as §1

Substance: H3R8me2s + K9me2: H3 1-20
Array Heatmap signal, DPF2 (PPC2W2) (DPF2 (PPC2W2); sheet "Array Heatmap", GST-tagged DPF2 (PPC2W2), total replicate number n = 4): 0.6724 | Array Heatmap signal, KDM5B (1) (KDM5B (1); sheet "Array Heatmap", GST-tagged KDM5B (1), total replicate number n = 4): 0.6818 | Array Heatmap signal, SP140L (SP140L; sheet "Array Heatmap", GST-tagged SP140L, total replicate number n = 4): 0.3733 | Array Heatmap signal, PHF13 (PHF13; sheet "Array Heatmap", GST-tagged PHF13, total replicate number n = 4): 0.6345 | Array Heatmap signal, MORC3 (CW) (MORC3 (CW); sheet "Array Heatmap", GST-tagged MORC3 (CW), total replicate number n = 4): 0.398 | Array Heatmap signal, PHF2 (PHF2; sheet "Array Heatmap", GST-tagged PHF2, total replicate number n = 4): 0.4235 | Array Heatmap signal, KDM4C (TTP) (KDM4C (TTP); sheet "Array Heatmap", GST-tagged KDM4C (TTP), total replicate number n = 4): 0.5379 | Array Heatmap signal, KDM5A (1) (KDM5A (1); sheet "Array Heatmap", GST-tagged KDM5A (1), total replicate number n = 4): 0.5094 | Array Heatmap signal, PHF21A (PHF21A; sheet "Array Heatmap", GST-tagged PHF21A, total replicate number n = 4): 0.4814 | Array Heatmap signal, ING3 (ING3; sheet "Array Heatmap", GST-tagged ING3, total replicate number n = 4): 0.4823 | Array Heatmap signal, PHF8 (PHF8; sheet "Array Heatmap", GST-tagged PHF8, total replicate number n = 4): 0.3655 | Array Heatmap signal, TAF3 (TAF3; sheet "Array Heatmap", GST-tagged TAF3, total replicate number n = 4): 0.2872 | Array Heatmap signal, KDM5B (3) (KDM5B (3); sheet "Array Heatmap", GST-tagged KDM5B (3), total replicate number n = 4): 0.5187 | Array Heatmap signal, RAG2 (RAG2; sheet "Array Heatmap", GST-tagged RAG2, total replicate number n = 4): 0.2593 | Array Heatmap signal, TRIM66 (PB) (TRIM66 (PB); sheet "Array Heatmap", GST-tagged TRIM66 (PB), total replicate number n = 4): 0.5924 | Array Heatmap signal, ING2 (ING2; sheet "Array Heatmap", GST-tagged ING2, total replicate number n = 4): 0.6129 | Array Heatmap signal, CHD5 (PPCC) (CHD5 (PPCC); sheet "Array Heatmap", GST-tagged CHD5 (PPCC), total replicate number n = 4): 0.5952 | Array Heatmap signal, PHF23 (PHF23; sheet "Array Heatmap", GST-tagged PHF23, total replicate number n = 4): 0.5163 | Array Heatmap signal, MLL5 (MLL5; sheet "Array Heatmap", GST-tagged MLL5, total replicate number n = 4): 0.5188 | Array Heatmap signal, AIRE (PP) (AIRE (PP); sheet "Array Heatmap", GST-tagged AIRE (PP), total replicate number n = 4): 0.5603 | Array Heatmap signal, KDM5A (3) (KDM5A (3); sheet "Array Heatmap", GST-tagged KDM5A (3), total replicate number n = 4): 0.4844 | Array Heatmap signal, BPTF (PB) (BPTF (PB); sheet "Array Heatmap", GST-tagged BPTF (PB), total replicate number n = 4): 0.3651 | Array Heatmap signal, DIDO1 (DIDO1; sheet "Array Heatmap", GST-tagged DIDO1, total replicate number n = 4): 0.6168 | Array Heatmap signal, CHD5 (PCC) (CHD5 (PCC); sheet "Array Heatmap", GST-tagged CHD5 (PCC), total replicate number n = 4): 0.7949 | Array Heatmap signal, ING5 (ING5; sheet "Array Heatmap", GST-tagged ING5, total replicate number n = 4): 0.3835 | Array Heatmap signal, KDM7A (KDM7A; sheet "Array Heatmap", GST-tagged KDM7A, total replicate number n = 4): 0.4179 | Array Heatmap signal, BAZ2B (BAZ2B; sheet "Array Heatmap", GST-tagged BAZ2B, total replicate number n = 4): 0.5059 | Array Heatmap signal, PHRF1 (RP) (PHRF1 (RP); sheet "Array Heatmap", GST-tagged PHRF1 (RP), total replicate number n = 4): 0.5504 | Array Heatmap signal, CHD4 (PPCC) (CHD4 (PPCC); sheet "Array Heatmap", GST-tagged CHD4 (PPCC), total replicate number n = 4): 0.5754 | Array Heatmap signal, ING1 (ING1; sheet "Array Heatmap", GST-tagged ING1, total replicate number n = 4): 0.5182 | Array Heatmap signal, ING4 (ING4; sheet "Array Heatmap", GST-tagged ING4, total replicate number n = 4): 0.4841

Array Heatmap value (peptide array binding signal) (DPF2 (PPC2W2); DPF2 (PPC2W2), GST-tagged, n of 4): 0.7163 and 0.602 | Array Heatmap value (peptide array binding signal) (KDM5B (1); KDM5B (1), GST-tagged, n of 4): 0.6449 and 0.6364 | Array Heatmap value (peptide array binding signal) (SP140L; SP140L, GST-tagged, n of 4): 0.3702 and 0.357 | Array Heatmap value (peptide array binding signal) (PHF13; PHF13, GST-tagged, n of 4): 0.6217 and 0.5883 | Array Heatmap value (peptide array binding signal) (MORC3 (CW); MORC3 (CW), GST-tagged, n of 4): 0.3508 and 0.3632 | Array Heatmap value (peptide array binding signal) (PHF2; PHF2, GST-tagged, n of 4): 0.5335 and 0.4712 | Array Heatmap value (peptide array binding signal) (KDM4C (TTP); KDM4C (TTP), GST-tagged, n of 4): 0.4885 and 0.4721 | Array Heatmap value (peptide array binding signal) (KDM5A (1); KDM5A (1), GST-tagged, n of 4): 0.4783 and 0.4109 | Array Heatmap value (peptide array binding signal) (PHF21A; PHF21A, GST-tagged, n of 4): 0.4478 and 0.464 | Array Heatmap value (peptide array binding signal) (ING3; ING3, GST-tagged, n of 4): 0.4824 and 0.4746 | Array Heatmap value (peptide array binding signal) (PHF8; PHF8, GST-tagged, n of 4): 0.3474 and 0.3417 | Array Heatmap value (peptide array binding signal) (TAF3; TAF3, GST-tagged, n of 4): 0.2617 and 0.2453 | Array Heatmap value (peptide array binding signal) (KDM5B (3); KDM5B (3), GST-tagged, n of 4): 0.4476 and 0.4512 | Array Heatmap value (peptide array binding signal) (RAG2; RAG2, GST-tagged, n of 4): 0.238 and 0.2335 | Array Heatmap value (peptide array binding signal) (TRIM66 (PB); TRIM66 (PB), GST-tagged, n of 4): 0.5511 and 0.5888 | Array Heatmap value (peptide array binding signal) (ING2; ING2, GST-tagged, n of 4): 0.6056 and 0.5874 | Array Heatmap value (peptide array binding signal) (CHD5 (PPCC); CHD5 (PPCC), GST-tagged, n of 4): 0.5507 and 0.5149 | Array Heatmap value (peptide array binding signal) (PHF23; PHF23, GST-tagged, n of 4): 0.5178 and 0.5191 | Array Heatmap value (peptide array binding signal) (MLL5; MLL5, GST-tagged, n of 4): 0.5387 and 0.5129 | Array Heatmap value (peptide array binding signal) (AIRE (PP); AIRE (PP), GST-tagged, n of 4): 0.4428 and 0.4192 | Array Heatmap value (peptide array binding signal) (KDM5A (3); KDM5A (3), GST-tagged, n of 4): 0.4461 and 0.4626 | Array Heatmap value (peptide array binding signal) (BPTF (PB); BPTF (PB), GST-tagged, n of 4): 0.3426 and 0.3388 | Array Heatmap value (peptide array binding signal) (DIDO1; DIDO1, GST-tagged, n of 4): 0.6948 and 0.6464 | Array Heatmap value (peptide array binding signal) (CHD5 (PCC); CHD5 (PCC), GST-tagged, n of 4): 0.7409 and 0.7549 | Array Heatmap value (peptide array binding signal) (ING5; ING5, GST-tagged, n of 4): 0.3615 and 0.3253 | Array Heatmap value (peptide array binding signal) (KDM7A; KDM7A, GST-tagged, n of 4): 0.3413 and 0.3447 | Array Heatmap value (peptide array binding signal) (BAZ2B; BAZ2B, GST-tagged, n of 4): 0.4609 and 0.4258 | Array Heatmap value (peptide array binding signal) (PHRF1 (RP); PHRF1 (RP), GST-tagged, n of 4): 0.4704 and 0.4395 | Array Heatmap value (peptide array binding signal) (CHD4 (PPCC); CHD4 (PPCC), GST-tagged, n of 4): 0.5418 and 0.5498 | Array Heatmap value (peptide array binding signal) (ING1; ING1, GST-tagged, n of 4): 0.5489 and 0.5171 | Array Heatmap value (peptide array binding signal) (ING4; ING4, GST-tagged, n of 4): 0.4678 and 0.4306
Substance: H3K27acK36me2 (21-44): H3 21-44
